Patent US11098342B2, “Time lapse sequencing: a convertible-nucleoside approach to enrichment-free analysis of RNA dynamics” (Yale University, priority 2017, dated 2021)

System: MEF cells
Assay: MEF cell viability, MTT Cell Proliferation Assay
Type: cell-based, mouse
Conditions: MEF cells treated with s^4U (0-1 mM) for 1 hour; MTT assay in triplicate
Description: FIG. 9A depicts exemplary MEF cell viability assays with increasing concentrations of s^4U (0, 50, 100, 500 and 1000 μM). FIG. 9B depicts exemplary MEF cell viability assays with increasing concentrations of Triton-X-100 (0, 0.5, 1, and 2%). MEF cells were plated at 10^6 cells/ml and allowed to rest overnight. An MTT assay (ATTC MTT Cell Proliferation Assay kit) was performed in triplicate after indicated treatment for 1 h. After treatment and lysis, absorbance at 570 nm was measured. FIG. 9C depicts an exemplary MA-plot of expression levels in RNA-seq in MEF cells treated with 1 mM s^4U for 1 hour, compared to cells without s^4U treatment. […] Each condition was tested with two replicates. Conditions are: ++, with s^4U treatment and chemical treatment; +−, with s^4U treatment but no chemical treatment; −+, no s^4U treatment but with chemical treatment; −−, neither s^4U treatment nor chemical treatment.
MEF cells were grown at 37° C. in DMEM containing 10% FBS and 1% P/S. Cells were plated at 10^6 cells/mL in a 96-well microtiter plate and allowed to recover overnight. Cells were then treated in triplicate with increasing concentrations of s^4U (0-1 mM) for 1 hour, and the ATCC MTT Cell Proliferation Assay kit was used according to manufacturer's instructions to assess cell viability.

**Q.** For `O=c1[nH]c(=S)ccn1[C@@H]1O[C@H](CO)[C@@H](O)[C@H]1O` [s^4U, 4-thiouridine], which “s^4U toxicity (cell viability, absorbance at 570 nm)” value is on record?
**A.** Its value is “no s^4U toxicity was observed”.
